The test system of the first data set is Plasma. Briefly: Metabolic stability in 10% human plasma assessed as aspirin release at pH 7.4 by RP-HPLC. Further: time not given here. Type of data set: ADME, cell-free.
Settings: not given
Turning to `CC(=O)Oc1ccccc1C(=O)O[C@H]1CO[C@H]2[C@@H]1OC[C@H]2OC(=O)c1ccccc1C`, the Activity is reported as 46%.

Take `CC(=O)Oc1ccccc1C(=O)O[C@H]1CO[C@H]2[C@@H]1OC[C@H]2OC(=O)c1ccc([N+](=O)[O-])cc1`: the Activity stood at 13%.

Turning to `CC(=O)Oc1ccccc1C(=O)O[C@H]1CO[C@H]2[C@@H]1OC[C@H]2OC(=O)c1ccncc1`, the Activity is listed as 19%.

With `CC(=O)Oc1ccccc1C(=O)O[C@H]1CO[C@H]2[C@@H]1OC[C@H]2OC(=O)c1cccc(C)c1`, the Activity is listed as 38%.

For `CC(=O)Oc1ccccc1C(=O)O[C@H]1CO[C@H]2[C@@H]1OC[C@H]2OC(=O)c1ccc(O)cc1`, the Activity was 1%.

In the case of `CC(=O)Oc1ccccc1C(=O)O[C@H]1CO[C@H]2[C@@H]1OC[C@H]2OC(=O)c1ccnn1C`, the Activity turned out to be 7%.

Regarding `CC(=O)Oc1ccccc1C(=O)O[C@H]1CO[C@H]2[C@@H]1OC[C@H]2OC(=O)c1ccccc1`, the Activity amounted to 19%.

For the compound `CC(=O)Oc1ccccc1C(=O)O[C@H]1CO[C@H]2[C@@H]1OC[C@H]2OC(=O)c1snnc1C`, the Activity came out at 32%.

As to `COc1ccc(C(=O)O[C@@H]2CO[C@H]3[C@@H]2OC[C@@H]3OC(=O)c2ccccc2OC(C)=O)cc1`, the Activity is given as 2.6%.

As for `CC(=O)Oc1ccccc1C(=O)O[C@H]1CO[C@H]2[C@@H]1OC[C@H]2OC(C)=O`, the Activity was 1.2%.

System in another data set: not listed separately
The data set can be described thus: Metabolic stability in 10% human plasma assessed as half life at pH 7.4 by RP-HPLC.
Settings: not given
As for `CC(=O)Oc1ccccc1C(=O)O[C@H]1CO[C@H]2[C@@H]1OC[C@H]2OC(=O)CCO[N+](=O)[O-]`, the half-life was 3.9 min.

For `CC(=O)Oc1ccccc1C(=O)O[C@@H]1CO[C@H]2[C@@H]1OC[C@@H]2O[N+](=O)[O-]` (racemic), the half-life amounted to 1.3 min.

With `CC(=O)Oc1ccccc1C(=O)O[C@H]1CO[C@H]2[C@@H]1OC[C@H]2OC(=O)CO[N+](=O)[O-]`, the half-life was determined as 3.6 min.

Consider `CC(=O)Oc1ccccc1C(=O)O[C@H]1CO[C@H]2[C@@H]1OC[C@H]2OC(=O)c1ccccc1C`, for which the half-life worked out at 2.1 min.

With `CCCCC(=O)O[C@@H]1CO[C@H]2[C@@H]1OC[C@@H]2OC(=O)c1ccccc1OC(C)=O`, the half-life is 1.19 min.

Consider `CC(=O)Oc1ccccc1C(=O)O[C@H]1CO[C@H]2[C@@H]1OC[C@H]2OC(=O)c1ccc([N+](=O)[O-])cc1`, for which the half-life was 2.77 min.

For `CC(=O)Oc1ccccc1C(=O)O[C@H]1CO[C@H]2[C@@H]1OC[C@H]2OC(=O)c1ccncc1`, the half-life amounted to 3.7 min.

As to `CC(=O)Oc1ccccc1C(=O)O[C@H]1CO[C@H]2[C@@H]1OC[C@H]2OC(=O)c1cccc(C)c1`, the half-life came out at 9.9 min.

Regarding `CC(=O)Oc1ccccc1C(=O)O[C@H]1CO[C@H]2[C@@H]1OC[C@H]2OC(=O)c1ccc(O)cc1`, the half-life stood at 1.19 min.

With `CC(=O)Oc1ccccc1C(=O)O[C@H]1CO[C@H]2[C@@H]1OC[C@H]2OC(=O)c1ccnn1C`, the half-life was 5.78 min.

Regarding `CC(=O)Oc1ccccc1C(=O)O[C@H]1CO[C@H]2[C@@H]1OC[C@H]2OC(=O)c1ccccc1`, the half-life was 3.3 min.

As to `CC(=O)Oc1ccccc1C(=O)O[C@H]1CO[C@H]2[C@@H]1OC[C@H]2OC(=O)c1snnc1C`, the half-life was 3.85 min.

Turning to `COc1ccc(C(=O)O[C@@H]2CO[C@H]3[C@@H]2OC[C@@H]3OC(=O)c2ccccc2OC(C)=O)cc1`, the half-life is 3.15 min.

On to `CC(=O)Oc1ccccc1C(=O)O[C@H]1CO[C@H]2[C@@H]1OC[C@H]2OC(C)=O`, for which the half-life stood at 3.65 min.

In a further data set the test system is Plasma. Briefly: Metabolic stability in 50% human plasma assessed as aspirin release at pH 7.4 by RP-HPLC. Further: time not given here. The class given is ADME, cell-free.
Settings: not given
As for `CCOc1cc(OCC)cc(C(=O)O[C@@H]2CO[C@H]3[C@@H]2OC[C@@H]3OC(=O)c2ccccc2OC(C)=O)c1`, the Activity is reported as less than 0.5%.

Turning to `CC(=O)Nc1cccc(C(=O)O[C@@H]2CO[C@H]3[C@@H]2OC[C@@H]3OC(=O)c2ccccc2OC(C)=O)c1`, the Activity came to 11%.

Take `CC(=O)Oc1ccccc1C(=O)O[C@H]1CO[C@H]2[C@@H]1OC[C@H]2OC(=O)c1ccccc1C`: the Activity is 59%.

Take `CCCCC(=O)O[C@@H]1CO[C@H]2[C@@H]1OC[C@@H]2OC(=O)c1ccccc1OC(C)=O`: the Activity is on record as less than 0.5%.

`CC(=O)Oc1ccccc1C(=O)O[C@H]1CO[C@H]2[C@@H]1OC[C@H]2OC(=O)c1ccc([N+](=O)[O-])cc1`: the Activity is on record as 22%.

In the case of `CC(=O)Oc1ccccc1C(=O)O[C@H]1CO[C@H]2[C@@H]1OC[C@H]2OC(=O)c1ccncc1`, the Activity is reported as 27%.

Regarding `CC(=O)Oc1ccccc1C(=O)O[C@H]1CO[C@H]2[C@@H]1OC[C@H]2OC(=O)c1cccc(C)c1`, the Activity is 54%.

As for `CC(=O)Oc1ccccc1C(=O)O[C@H]1CO[C@H]2[C@@H]1OC[C@H]2OC(=O)c1ccc(O)cc1`, the Activity is 0.5%.

For the compound `CC(=O)Oc1ccccc1C(=O)O[C@H]1CO[C@H]2[C@@H]1OC[C@H]2OC(=O)c1ccnn1C`, the Activity is 6%.

Turning to `CC(=O)Oc1ccccc1C(=O)O[C@H]1CO[C@H]2[C@@H]1OC[C@H]2OC(=O)c1ccccc1`, the Activity is given as 29%.

For the compound `CC(=O)Oc1ccccc1C(=O)O[C@H]1CO[C@H]2[C@@H]1OC[C@H]2OC(=O)c1snnc1C`, the Activity is reported as 31%.

In the case of `COc1ccc(C(=O)O[C@@H]2CO[C@H]3[C@@H]2OC[C@@H]3OC(=O)c2ccccc2OC(C)=O)cc1`, the Activity came out at 4%.

On to `CC(=O)Oc1ccccc1C(=O)O[C@H]1CO[C@H]2[C@@H]1OC[C@H]2OC(C)=O`, for which the Activity worked out at 1.3%.

System in another data set: not listed separately
The data set can be described thus: Antiplatelets aggregatory activity in human platelets rich plasma assessed as inhibition of collagen-induced platelets aggregation by aggregometry. The note with it: Platelet. The class given is functional, cell-free.
For the compound `CC(=O)Oc1ccccc1C(=O)O` [ASPIRIN], the IC50 worked out at 20.6 µM.

System in a further data set: not listed separately
The data set can be described thus: Metabolic stability in 50% human plasma assessed as half life at pH 7.4 by RP-HPLC.
Settings: not given
In the case of `CC(=O)Oc1ccccc1C(=O)O[C@H]1CO[C@H]2[C@@H]1OC[C@H]2OC(=O)CCO[N+](=O)[O-]`, the half-life came to 1.3 min.

Consider `CCOc1cc(OCC)cc(C(=O)O[C@@H]2CO[C@H]3[C@@H]2OC[C@@H]3OC(=O)c2ccccc2OC(C)=O)c1`, for which the half-life is 1.7 min.

As to `CC(=O)Nc1cccc(C(=O)O[C@@H]2CO[C@H]3[C@@H]2OC[C@@H]3OC(=O)c2ccccc2OC(C)=O)c1`, the half-life worked out at 3.5 min.

`CC(=O)Oc1ccccc1C(=O)O[C@H]1CO[C@H]2[C@@H]1OC[C@H]2OC(=O)CO[N+](=O)[O-]`: the half-life stood at 0.9 min.

For `CC(=O)Oc1ccccc1C(=O)O[C@H]1CO[C@H]2[C@@H]1OC[C@H]2OC(=O)c1ccccc1C`, the half-life amounted to 0.83 min.

Consider `CCCCC(=O)O[C@@H]1CO[C@H]2[C@@H]1OC[C@@H]2OC(=O)c1ccccc1OC(C)=O`, for which the half-life was determined as 0.7 min.

Regarding `CC(=O)Oc1ccccc1C(=O)O[C@H]1CO[C@H]2[C@@H]1OC[C@H]2OC(=O)c1ccc([N+](=O)[O-])cc1`, the half-life was determined as 1.36 min.

For `CC(=O)Oc1ccccc1C(=O)O[C@H]1CO[C@H]2[C@@H]1OC[C@H]2OC(=O)c1ccncc1`, the half-life stood at 0.33 min.

As for `CC(=O)Oc1ccccc1C(=O)O[C@H]1CO[C@H]2[C@@H]1OC[C@H]2OC(=O)c1cccc(C)c1`, the half-life was found to be 1.22 min.

With `CC(=O)Oc1ccccc1C(=O)O[C@H]1CO[C@H]2[C@@H]1OC[C@H]2OC(=O)c1ccc(O)cc1`, the half-life was 1.19 min.

`CC(=O)Oc1ccccc1C(=O)O[C@H]1CO[C@H]2[C@@H]1OC[C@H]2OC(=O)c1ccnn1C`: the half-life is 3.85 min.

Take `CC(=O)Oc1ccccc1C(=O)O[C@H]1CO[C@H]2[C@@H]1OC[C@H]2OC(=O)c1ccccc1`: the half-life was determined as 0.64 min.

Take `CC(=O)Oc1ccccc1C(=O)O[C@H]1CO[C@H]2[C@@H]1OC[C@H]2OC(=O)c1snnc1C`: the half-life worked out at 0.39 min.

Take `COc1ccc(C(=O)O[C@@H]2CO[C@H]3[C@@H]2OC[C@@H]3OC(=O)c2ccccc2OC(C)=O)cc1`: the half-life worked out at 1.1 min.

In the case of `CC(=O)Oc1ccccc1C(=O)O[C@H]1CO[C@H]2[C@@H]1OC[C@H]2OC(C)=O`, the half-life was 0.57 min.

What is called half-life is how long it takes for the measured level to halve. A word on the IC50: it is the concentration that inhibits the measured activity by half.

(Values after ChEMBL document CHEMBL1156105 (J Med Chem, 2009).)
